The test system of data set [1] is ulcerative colitis. The conditions noted are these: chronically active, steroid-resistant or steroid-dependant ulcerative colitis; cited from earlier work.
In data set [2] the target is T1, IL-2R (Homo sapiens, UniProt P01589).
T1 sequence (P01589 22-272): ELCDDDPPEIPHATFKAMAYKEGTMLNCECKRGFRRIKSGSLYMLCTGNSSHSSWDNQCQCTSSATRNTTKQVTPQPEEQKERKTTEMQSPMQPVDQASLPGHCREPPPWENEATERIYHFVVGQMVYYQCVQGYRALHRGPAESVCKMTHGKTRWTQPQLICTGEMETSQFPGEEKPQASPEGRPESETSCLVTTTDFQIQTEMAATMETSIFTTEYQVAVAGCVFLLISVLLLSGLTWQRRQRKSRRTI
The conditions noted are these: serum concentration of 0.2 mg/l; cited from earlier work.

Data set [3] has as its system phytohaemagglutinin stimulated lymphocytes. In words: Lymphocyte steroid sensitivity (Imax) with and without basiliximab, 32 subjects (Example 2). In kind it is cell-based, human. The conditions noted are these: basiliximab 1 mg/L. Here is the method: Peripheral blood lymphocytes are isolated from 32 subjects (25 healthy volunteers and 7 patients with quiescent Ulcerative Colitis), on 41 occasions, using buoyant density centrifugation. Lymphocyte steroid sensitivity is assessed by measuring the antiproliferative effect of dexamethasone (DEX) on phytohaemagglutinin stimulated lymphocytes. Maximum steroid induced suppression is expressed as a % of control lymphocyte proliferation (Imax). Imax is measured in the absence and presence of basiliximab (1 mg/L).

For data set [4], the system named is PHA-stimulated lymphocytes. In words: Lymphocyte steroid sensitivity: dexamethasone inhibition of PHA-stimulated proliferation with and without basiliximab (Example 1). The settings on record: effect on Imax; subjects 5-8; basiliximab 1 mg/l. In kind it is cell-based, human. Here is the method: (§1) Measurement of lymphocyte steroid sensitivity: The sensitivity of peripheral blood lymphocytes to glucocorticoids is assessed in a functional assay i.e. an in vitro proliferation assay stimulated by phytohaemagglutinin (PHA) and inhibited by dexamethasone. (Hearing S D, et al. Gut 1999; 45:382-8; Hearing S D, et al. J Clin Endocrinol Metab 1999; 84:4149-54). Peripheral blood samples are collected at 09:00 hours, and peripheral blood mononuclear cells (PBMC) are separated by buoyancy centrifugation. Buoyancy centrifugation includes the separation of lymphocytes from the blood sample by centrifugation over a ficol gradient. Ficol allows red blood cells to fall through, but prevents the through-movement of lymphocytes. Peripheral blood mononuclear cells (lymphocytes and marocyes) are collected from the ficol/plasma interface. PBMC proliferation is stimulated with PHA and inhibited with dexamethasone at serial 10 fold dilutions between 10^−6 and 10^−10 mol/1. i.e. 10^−6, 10^−7, 10^−8, 10^−9, 10^−10 mol/1. Cell proliferation is measured by tritiated thymidine uptake i.e. after 2 days of incubation, radioisotape labelled thymidine (^3H-thymidine) is added to the lymphocyte culture medium and became incorporated into the DNA of proliferating lymphocyes. After 6 hours the cells are transferred from the incubator and collected on a filter mat using a cell harvester. The cells are then washed out of the well. The lymphocyte DNA that has incorporated the thymidine is trapped in the filter paper. When radioactivity levels are measured the wells which contain high numbers of actively proliferating lymphocytes (and thus will have incorporated lots of thymidine into the DNA) will have high radioactivity levels. […] The results are calculated as mean counts per minute (cpm) of triplicate cultures. Thymidine incorporation for each concentration of dexamethasone is compared to that of PHA stimulated T lymphocytes in the absence of dexamethasone, and expressed as a percentage of the uninhibited positive control. The effect of different concentrations of basiliximab on lymphocyte proliferation is also studied. In addition, an equal concentration of basiliximab is added to each cell culture medium at all concentrations of dexamethasone and the antiproliferative effect measured.
Effect of […]® on steroid sensitivity: For all eight subjects, PHA-stimulated lymphocytes are cultured in the presence of increasing concentrations of dexamethasone (10^−10-10^−6 mol/l) in the presence and absence of basiliximab (1 mg/l). In previous studies of ulcerative colitis carried out by the inventor, maximal suppression (Imax)<60% correlated with a poor response to steroid therapy (clinical steroid resistance). The exact value of Imax cannot be measured as it is the inhibition at an infinitely high level of dexamethasone. Thus, the percentage inhibition of proliferation observed at the maximum dexamethasone concentration applied (10^−6 mol/l) is used as the measure of Imax. In practice, there is good agreement between Imax and the estimated asymptotic value for maximal inhibition obtained from dose-response curves (Hearing S D et al (1999) Clin. Endoctrinol. Metab 84:4149-54). A concentration of dexamethasone of 10^−7 mol/l is approximately equivalent in terms of glucocorticoid activity to the serum concentrations of hydrocortisone achieved with intravenous therapy at standard doses. Thus, to make comparisons with the potential effect of basiliximab in vivo, the steroid sensitising effect of basiliximab at this concentration of dexamethasone may also be of interest. […] The subjects are shown in decreasing order of steroid sensitivity (with the most sensitive on the left).

In data set [5] the test system is PHA stimulated peripheral blood lymphocytes. In words: PHA-induced lymphocyte proliferation (tritiated thymidine uptake), basiliximab in the absence of steroids. The conditions noted are these: for PHA-induced cell proliferation (cpm) / Inhibition (%): basiliximab 1 mg/l, absence of steroids; for Inhibition (%): vs PHA alone. In kind it is cell-based, human. Here is the method:
as §1
Effect of […]® on lymphocyte proliferation: Serum concentration of 0.2 mg/l of basiliximab produces >90% IL-2R occupancy. To test the antiproliferative in vitro effect of basiliximab, various concentrations of between 0.01 and 10 mg/l of basiliximab are incubated with lymphocytes in the absence of steroids. These assays confirm that an in vitro concentration of >0.1 to 0.3 mg/l basiliximab is required to produce the in vitro effect of basiliximab. For further studies on the same subjects, a concentration of 1 mg/l is used. In total, the same eight subjects are studied in each experiment. The effect of basiliximab at a concentration of 1 mg/l on PHA-induced cell proliferation in the absence of steroids is shown in Table 1

For data set [6] the following is noted: at the dosage levels employed; cited from earlier work.

“Also recorded” adds a separate entry of the source.

With `Cn1cnc([N+](=O)[O-])c1Sc1ncnc2nc[nH]c12` [Azathioprine], the “delayed onset of action” value in data set [1] is recorded as 34 months.

For the molecule basiliximab, the IL-2R occupancy in data set [2] is recorded as greater than 90%. In addition, in data set [3] (Wilcoxon signed-rank test, p<0.0001), the “Enhancement of the anti-proliferative effect of DEX” value is reported as “significantly enhanced; also recorded: marked in vitro steroid enhancing effect”. Besides, in data set [3] (in vitro), the “Modulation of steroid-resistant subjects (Imax<60%) to steroid-sensitive” value is given as “All 8 steroid-resistant subjects (Imax<60%) are modulated (in vitro) to steroid-sensitive”. Also, in data set [4], the “Modulation of lymphocyte steroid sensitivity (LSS) of steroid-resistant subjects” value is “all become Steroid-sensitive”. The “in vitro concentration required to produce the in vitro (antiproliferative) effect” value in data set [5] (0.01 to 10 mg/l incubated with lymphocytes in the absence of steroids) lay in the range of 0.1 to 0.3 mg/L. In addition, the “PHA-induced cell proliferation (cpm)” value is on record as 23943 cpm in data set [5] (mean of 8 subjects); 21827 cpm in data set [5] (subject 1); 15157 cpm in data set [5] (subject 2); 27239 cpm in data set [5] (subject 3); 27538 cpm in data set [5] (subject 4); 21446 cpm in data set [5] (subject 5). The “PHA-induced cell proliferation (cpm)” value was 35003 cpm in data set [5] (subject 6), 16122 cpm in data set [5] (subject 7) and 27209 cpm in data set [5] (subject 8). The “Inhibition (%)” value in data set [5] (mean of 8 subjects) came to 37.8%; in data set [5] (subject 1), 43.5%; in data set [5] (subject 2) it was 39.9%; in data set [5] (subject 3), 33.3%; in data set [5] (subject 4), 15.4%; in data set [5] (subject 5) it was 52.8%. Moreover, the “Inhibition (%)” value in data set [5] (subject 6) was 47.1%; in data set [5] (subject 7) it was 44.2%; in data set [5] (subject 8), 26.4%. In data set [6], the “Side-effects / safety of administration” value is listed as “safe”.

These data come from patent US20090274691A1, “Use of CD25 binding molecules in steroid-resistant patients” (priority 2001, published 2009).
